Measured values reported in ChEMBL document CHEMBL4052780, “Novel 1,2-dihydroquinazolin-2-ones: Design, synthesis, and biological evaluation against Trypanosoma brucei” (Bioorg Med Chem Lett, 2017).
≈ marks a conversion by molar mass, not a printed value.

Experiments:
[1] = test system: Trypanosoma brucei brucei; assay: Antitrypanosomal activity against bloodstream form of Trypanosoma brucei brucei Lister 427 after 72 hrs by resazurin based fluorescence assay; type: functional; settings: Lister 427, 72 h
[2] = Cytotoxicity against human MRC5 SV2 cells after 48 hrs by resazurin based fluorescence assay; type: cell-based; settings: MRC-5 SV2, 48 h
Trypanosoma cruzi = assay: Antitrypanosomal activity against Trypanosoma cruzi Tulahuen C4 amastigotes infected in rat L6 cells after 96 hrs by beta-galactosidase reporter gene assay; type: functional, cell-based; settings: Tulahuen C4, L6, 96 h
L6 = assay: Cytotoxicity against rat L6 cells assessed as reduction in cell viability after 72 hrs by resazurin based fluorescence assay; settings: L6, 72 h
Leishmania donovani = assay: Antileishmanial activity against intracellular […] stage of Leishmania donovani MHOM/ET/67/HU3 infected in human THP1 cells measured after 72 hrs by luciferase reporter gene assay; type: functional, cell-based; settings: MHOM/ET/67/HU3, THP-1, 72 h
THP-1 = assay: Cytotoxicity against human THP1 cells assessed as reduction in cell viability after 72 hrs by MTT assay; type: cell-based; settings: THP-1, 72 h
[3] = Kinetic aqueous solubility of the compound by CLND method; type: physicochemical; settings: read-out: Kinetic_solubility
[4] = test system: Trypanosoma brucei brucei; assay: Antitrypanosomal activity against bloodstream form of Trypanosoma brucei brucei Lister 427 after 70 hrs by resazurin based fluorescence assay; type: functional; settings: Lister 427, 70 h
[5] = Lipophilicity, log D of the compound at pH 7.4; type: physicochemical; settings: buffer
Liver = assay: Intrinsic clearance in human liver microsomes; type: ADME, microsome
[6] = Intrinsic clearance in rat hepatocytes assessed per million cells; type: ADME, cell-based, Hepatocyte

EC50 [1]	EC50 (Trypanosoma cruzi)	EC50 (Leishmania donovani)	solubility kinetic [3]	EC50 [4]	logD [5]	CLH (Liver)	CLH [6]	SMILES	EC50 [2]	EC50 (L6)	EC50 (THP-1)
1.77 µM	6.29 µM	> 5 µM						O=c1nc(-c2ccccc2)c2cc(-c3ccc(N4CCCC4)nc3)ccc2[nH]1	> 50 µM	> 50 µM	> 50 µM
> 40 µM	> 20 µM	> 5 µM						O=c1nc(-c2ccccc2)c2ccc(-c3cccnc3)cc2[nH]1	> 50 µM	7.73 µM	> 50 µM
3.88 µM	8.73 µM	> 5 µM						O=c1nc(-c2ccccc2)c2cc(-c3ccc(F)cc3)ccc2[nH]1	> 50 µM	50 µM	> 50 µM
5.24 µM	9.56 µM	> 5 µM						Cc1cncc(-c2ccc3[nH]c(=O)nc(-c4ccccc4)c3c2)c1	> 50 µM	> 50 µM	> 50 µM
4.87 µM	> 20 µM	> 5 µM						O=c1nc(-c2ccccc2)c2ccc(-c3cccc(N4CCOCC4)c3)cc2[nH]1	> 50 µM	4.53 µM	> 50 µM
4.29 µM	9.48 µM	> 5 µM						O=c1nc(-c2ccccc2)c2cc(-c3cccc(F)c3)ccc2[nH]1	> 50 µM	23 µM	> 50 µM
14.2 µM	> 20 µM	> 5 µM						O=c1nc(-c2ccccc2)c2ccc(-c3ccncc3)cc2[nH]1	> 50 µM		> 50 µM
1.71 µM	17.4 µM	> 5 µM						N#Cc1ccc(-c2ccc3[nH]c(=O)nc(-c4ccccc4)c3c2)cc1	> 50 µM	> 50 µM	> 50 µM
4.88 µM	> 20 µM	> 5 µM						O=c1nc(-c2ccccc2)c2cc(-c3ccccc3)ccc2[nH]1	> 50 µM	> 50 µM	> 50 µM
2.04 µM	14 µM	> 5 µM						CN(C)c1ccc(-c2ccc3[nH]c(=O)nc(-c4ccccc4)c3c2)cn1	> 50 µM	50 µM	> 50 µM
5.6 µM	> 20 µM	> 5 µM						Cn1cc(-c2ccc3[nH]c(=O)nc(-c4ccccc4)c3c2)cn1	> 50 µM	> 50 µM	> 50 µM
3.71 µM	8.63 µM	> 5 µM						O=c1nc(-c2ccccc2)c2cc(-c3ccccc3F)ccc2[nH]1	> 50 µM	55.8 µM	50 µM
5.96 µM	17.4 µM	> 5 µM						Cn1nccc1-c1ccc2[nH]c(=O)nc(-c3ccccc3)c2c1	> 50 µM	> 50 µM	> 50 µM
14.1 µM	> 20 µM	> 5 µM	324 µM (≈ 99.6 µg/mL)					O=c1nc(-c2ccccc2)c2cc(N3CCOCC3)ccc2[nH]1	> 50 µM	> 50 µM	> 50 µM
3.14 µM	5.28 µM	> 5 µM	13 µM (≈ 3.93 µg/mL)					Cc1ccccc1-c1nc(=O)[nH]c2ccc(-c3cc[nH]n3)cc12	> 50 µM	> 50 µM	> 50 µM
5.32 µM	16.8 µM	> 5 µM						Cc1cc(-c2ccc3[nH]c(=O)nc(-c4ccccc4)c3c2)ccn1	> 50 µM	> 50 µM	> 50 µM
1.73 µM	7.19 µM	> 5 µM						O=c1nc(-c2ccccc2)c2cc(-c3cnc4ccccc4c3)ccc2[nH]1	> 50 µM	> 16 µM	> 50 µM
2.17 µM	8.3 µM	> 5 µM						O=c1nc(-c2ccccc2)c2cc(-c3ccc(N4CCOCC4)cc3)ccc2[nH]1	23.8 µM	22.7 µM	> 50 µM
1.44 µM	8.33 µM	> 5 µM						O=c1nc(-c2ccccc2)c2cc(-c3cn[nH]c3)ccc2[nH]1	22 µM	> 50 µM	> 50 µM

EC50 [1]	EC50 (Trypanosoma cruzi)	EC50 (Leishmania donovani)	solubility kinetic [3]	EC50 [4]	logD [5]	CLH (Liver)	CLH [6]	SMILES	EC50 [2]	EC50 (L6)	EC50 (THP-1)
5.35 µM	15.8 µM	> 5 µM						O=c1nc(-c2ccccc2)c2cc(-c3cccnc3)ccc2[nH]1	> 50 µM	> 50 µM	> 50 µM
5.21 µM	18.4 µM	> 5 µM						O=c1nc(-c2ccccc2)c2cc(-c3ccc(C(F)(F)F)nc3)ccc2[nH]1	> 50 µM	> 50 µM	> 50 µM
5.7 µM	> 20 µM	> 5 µM						CNC(=O)c1cccc(-c2ccc3[nH]c(=O)nc(-c4ccccc4)c3c2)c1	> 50 µM	> 50 µM	> 50 µM
1.89 µM	10.9 µM	> 5 µM		0.84 µM				O=c1nc(-c2ccccc2)c2cc(-c3ccncc3)ccc2[nH]1	> 50 µM	> 50 µM	
> 40 µM	> 20 µM	> 5 µM						N#Cc1ccc(-c2cccc3[nH]c(=O)nc(-c4ccccc4)c23)cc1	> 50 µM	> 50 µM	> 50 µM
10 µM	> 20 µM	> 5 µM						O=c1nc(-c2ccccc2)c2cc(-c3cncnc3)ccc2[nH]1	> 50 µM	> 50 µM	> 50 µM
> 40 µM	> 20 µM	> 5 µM	80 µM (≈ 18.9 µg/mL)					Cc1ccc2[nH]c(=O)nc(-c3ccccc3)c2c1	> 50 µM	> 50 µM	> 50 µM
4.65 µM	> 20 µM	> 5 µM						O=c1nc(-c2ccccc2)c2ccc(-c3ccc(F)cc3)cc2[nH]1	> 50 µM		> 50 µM
5.95 µM	16.9 µM	> 5 µM	74 µM (≈ 19.7 µg/mL)		2.3			O=c1nc(C2CCC2)c2cc(-c3cc[nH]n3)ccc2[nH]1	> 50 µM	> 50 µM	> 50 µM
2.13 µM	11.9 µM	> 5 µM						Cc1noc(C)c1-c1ccc2[nH]c(=O)nc(-c3ccccc3)c2c1	> 50 µM	> 50 µM	> 50 µM
1.04 µM	13.3 µM	> 5 µM	8 µM (≈ 2.31 µg/mL)		2.2	19 µL/min/mg	< 1 µL/min	O=c1nc(-c2ccccc2)c2cc(-c3cc[nH]n3)ccc2[nH]1	> 50 µM	> 50 µM	> 50 µM
> 40 µM	> 20 µM	> 5 µM						O=c1nc(-c2ccccc2)c2ccc(-c3cncnc3)cc2[nH]1	> 50 µM		> 50 µM
5.17 µM	15.1 µM	> 5 µM						O=c1nc(-c2ccccc2)c2cc(-c3cccc(N4CCOCC4)c3)ccc2[nH]1	> 50 µM	> 50 µM	> 50 µM
> 40 µM	> 20 µM	> 5 µM						Cn1ccc(-c2cccc3[nH]c(=O)nc(-c4ccccc4)c23)n1	> 50 µM	> 50 µM	> 50 µM
29 µM	20 µM	> 5 µM						COc1ccccc1-c1nc(=O)[nH]c2ccc(-c3cc[nH]n3)cc12	> 50 µM	> 50 µM	> 50 µM
5.29 µM	14.8 µM	> 5 µM						Cc1ccc(-c2ccc3[nH]c(=O)nc(-c4ccccc4)c3c2)cn1	> 50 µM	> 50 µM	> 50 µM
5.07 µM	8.94 µM	> 5 µM						Cc1ccncc1-c1ccc2[nH]c(=O)nc(-c3ccccc3)c2c1	> 50 µM	> 50 µM	> 50 µM
5.76 µM	20 µM	> 5 µM	5 µM (≈ 1.47 µg/mL)					O=c1nc(C2CCCCC2)c2cc(-c3cc[nH]n3)ccc2[nH]1	> 50 µM	> 50 µM	> 50 µM

SMILES	EC50 [1]	EC50 (Trypanosoma cruzi)	EC50 (Leishmania donovani)	solubility kinetic [3]	EC50 [4]	logD [5]	CLH (Liver)	CLH [6]	EC50 [2]	EC50 (L6)	EC50 (THP-1)
O=c1nc(-c2ccccc2)c2cc(N3CCNCC3)ccc2[nH]1	> 20 µM	> 10 µM	> 2.5 µM	> 1000 µM					> 25 µM	> 25 µM	> 25 µM
CN1CCN(c2ccc3[nH]c(=O)nc(-c4ccccc4)c3c2)CC1	> 40 µM	> 20 µM	> 5 µM	> 1000 µM					> 50 µM	> 50 µM	> 50 µM
